Results on one molecule are retold here after article PMC11044016 (Journal of the American Chemical Society, 2023).

For data set [1] the following is noted: Balb/cJ mice, s.c. 75 mg/kg.
The next data set relates to HBV. Briefly: Antiviral. It is filed as cell-based. Conditions: Hepatitis B virus, HePAD38, read-out: IC50 (HBV DNA released from cells).
The conditions of data set [2]: terminal cytosine of 3TC; stated without experiment, no reference given; cited from earlier work.

SMILES strings stand for the structures.

Take `Nc1ccn([C@H]2CS[C@@H](CO)O2)c(=O)n1` [3TC, 2’,3’-Dideoxy-3’-Thiacytidine]: the “3TC plasma concentration after day 3” value in data set [1] is on record as “no drug detectable”. In the data set on HBV, the IC50 was 170 nM. Moreover, in data set [2], the pKa entry is “around 7.2”.

A word on the IC50: it is the concentration needed to halve the response being measured.
